Reference: article PMC10004634 (PLOS ONE, 2023)
Where two headings read alike, the source gives them in different places.

Key:
Experiment in all cases: biochemical
Design in all cases: KINOMEscan scanMAX competition binding, DNA-tagged kinases, qPCR read-out, percent control at 300 nM
[1] = target: T1, DRAK1 (Homo sapiens, UniProt Q9UEE5)
T1 construct: gene STK17A

[2] = target: T2, LOK (Homo sapiens, UniProt O94804)
T2 construct: gene STK10

[3] = target: LCK (Homo sapiens, UniProt P06239)
[4] = target: T3, PKAC-alpha (Homo sapiens, UniProt P17612)
T3 construct: gene PRKACA

[5] = target: BTK (Homo sapiens, UniProt Q06187)
[6] = target: PRKD1 (Homo sapiens, UniProt Q15139)
[7] = target: PRKD2 (Homo sapiens, UniProt Q9BZL6)
[8] = target: T4, ARK5 (Homo sapiens, UniProt O60285)
T4 construct: gene NUAK1

[9] = target: DDR1 (Homo sapiens, UniProt Q08345)
DDR1, sequence (Q08345 whole entry): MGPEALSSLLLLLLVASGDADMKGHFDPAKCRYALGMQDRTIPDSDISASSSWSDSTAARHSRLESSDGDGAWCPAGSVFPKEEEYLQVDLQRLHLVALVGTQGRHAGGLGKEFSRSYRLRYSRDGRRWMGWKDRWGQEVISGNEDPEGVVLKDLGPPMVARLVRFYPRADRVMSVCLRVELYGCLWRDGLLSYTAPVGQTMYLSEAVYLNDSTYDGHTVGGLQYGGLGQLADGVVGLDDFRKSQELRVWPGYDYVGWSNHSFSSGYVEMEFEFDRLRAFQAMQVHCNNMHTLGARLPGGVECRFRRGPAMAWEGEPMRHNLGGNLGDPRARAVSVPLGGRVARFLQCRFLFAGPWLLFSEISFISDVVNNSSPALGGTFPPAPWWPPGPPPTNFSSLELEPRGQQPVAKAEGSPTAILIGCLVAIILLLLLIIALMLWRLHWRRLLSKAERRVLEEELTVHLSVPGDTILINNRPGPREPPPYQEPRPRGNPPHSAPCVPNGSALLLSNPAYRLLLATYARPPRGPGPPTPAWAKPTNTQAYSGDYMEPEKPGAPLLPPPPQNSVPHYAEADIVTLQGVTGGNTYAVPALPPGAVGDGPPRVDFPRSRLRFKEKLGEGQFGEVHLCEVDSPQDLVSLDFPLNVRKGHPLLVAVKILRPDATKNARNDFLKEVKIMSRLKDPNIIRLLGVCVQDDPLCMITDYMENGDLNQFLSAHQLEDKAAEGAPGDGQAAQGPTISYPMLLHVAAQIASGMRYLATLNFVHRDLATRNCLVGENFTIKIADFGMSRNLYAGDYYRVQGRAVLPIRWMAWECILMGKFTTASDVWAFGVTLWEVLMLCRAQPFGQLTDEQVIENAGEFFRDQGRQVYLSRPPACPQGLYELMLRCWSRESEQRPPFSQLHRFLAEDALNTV

[10] = target: T5, ABL1(T315I)-phosphorylated (Homo sapiens, UniProt P00519, T315I)
T5 construct: phosphorylated

[11] = target: T6, OSR1 (Homo sapiens, UniProt O95747)
T6 construct: gene OXSR1
T6 sequence (O95747 whole entry): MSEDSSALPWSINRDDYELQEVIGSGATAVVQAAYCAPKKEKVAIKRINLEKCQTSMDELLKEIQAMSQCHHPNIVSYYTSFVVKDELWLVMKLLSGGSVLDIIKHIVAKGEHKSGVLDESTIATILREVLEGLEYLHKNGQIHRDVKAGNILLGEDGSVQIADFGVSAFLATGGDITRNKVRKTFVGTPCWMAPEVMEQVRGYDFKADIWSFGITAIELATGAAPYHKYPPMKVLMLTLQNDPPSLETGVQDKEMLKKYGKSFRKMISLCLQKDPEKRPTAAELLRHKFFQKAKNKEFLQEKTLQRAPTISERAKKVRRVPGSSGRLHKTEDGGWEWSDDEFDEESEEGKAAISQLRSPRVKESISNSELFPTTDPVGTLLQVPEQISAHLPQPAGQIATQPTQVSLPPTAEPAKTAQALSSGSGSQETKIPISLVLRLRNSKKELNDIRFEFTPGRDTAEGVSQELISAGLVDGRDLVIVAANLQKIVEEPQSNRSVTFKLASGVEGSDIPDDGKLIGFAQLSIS

[12] = target: T7, CTK (Homo sapiens, UniProt P42679)
T7 construct: gene MATK

[13] = target: FLT3(ITD) (Homo sapiens, UniProt P36888, ITD)
[14] = target: ROCK1 (Homo sapiens, UniProt Q13464)
[15] = target: T8, RPS6KA4(Kin.Dom.2-C-terminal) (Homo sapiens, UniProt O75676)
T8 construct: Kin.Dom.2-C-terminal

[16] = target: T9, MLK3 (Homo sapiens, UniProt Q16584)
T9 construct: gene MAP3K11

[17] = target: SGK3 (Homo sapiens, UniProt Q96BR1)
[18] = target: PAK3 (Homo sapiens, UniProt O75914)
[19] = target: CAMK2B (Homo sapiens, UniProt Q13554)
CAMK2B, sequence (Q13554 whole entry): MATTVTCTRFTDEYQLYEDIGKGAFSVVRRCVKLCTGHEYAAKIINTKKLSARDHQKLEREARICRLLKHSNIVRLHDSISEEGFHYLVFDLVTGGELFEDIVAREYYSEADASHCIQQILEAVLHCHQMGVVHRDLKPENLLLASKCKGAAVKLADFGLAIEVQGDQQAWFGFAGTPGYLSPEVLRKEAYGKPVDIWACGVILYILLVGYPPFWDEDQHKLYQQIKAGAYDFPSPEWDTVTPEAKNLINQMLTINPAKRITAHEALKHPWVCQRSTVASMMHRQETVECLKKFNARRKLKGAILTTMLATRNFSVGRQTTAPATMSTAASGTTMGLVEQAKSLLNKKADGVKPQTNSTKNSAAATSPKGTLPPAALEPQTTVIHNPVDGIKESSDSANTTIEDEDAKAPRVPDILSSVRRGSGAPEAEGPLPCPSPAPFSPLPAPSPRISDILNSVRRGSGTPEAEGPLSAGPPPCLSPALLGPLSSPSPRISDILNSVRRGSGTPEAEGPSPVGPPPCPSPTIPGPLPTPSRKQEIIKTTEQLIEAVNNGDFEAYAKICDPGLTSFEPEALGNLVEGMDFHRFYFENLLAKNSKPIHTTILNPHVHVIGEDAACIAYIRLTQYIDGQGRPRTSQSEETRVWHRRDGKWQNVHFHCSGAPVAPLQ

[20] = target: BMPR1A (Homo sapiens, UniProt P36894)
[21] = target: ACVRL1 (Homo sapiens, UniProt P37023)
ACVRL1, sequence (P37023 whole entry): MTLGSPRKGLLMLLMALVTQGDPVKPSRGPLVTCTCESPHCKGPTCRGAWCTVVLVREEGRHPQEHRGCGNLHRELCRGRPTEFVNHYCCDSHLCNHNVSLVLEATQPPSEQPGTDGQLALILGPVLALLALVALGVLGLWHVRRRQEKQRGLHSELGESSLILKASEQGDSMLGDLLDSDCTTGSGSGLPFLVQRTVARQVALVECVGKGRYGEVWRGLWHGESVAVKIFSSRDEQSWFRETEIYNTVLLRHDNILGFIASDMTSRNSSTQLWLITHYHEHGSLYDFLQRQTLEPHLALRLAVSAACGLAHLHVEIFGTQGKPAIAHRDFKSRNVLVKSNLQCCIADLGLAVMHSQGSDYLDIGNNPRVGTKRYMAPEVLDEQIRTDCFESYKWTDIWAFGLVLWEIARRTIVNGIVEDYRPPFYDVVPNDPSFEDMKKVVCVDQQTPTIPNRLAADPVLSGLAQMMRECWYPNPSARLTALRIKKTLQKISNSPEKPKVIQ

[22] = target: DMPK (Homo sapiens, UniProt Q09013)
[23] = target: MAK (Homo sapiens, UniProt P20794)
MAK, sequence (P20794 whole entry): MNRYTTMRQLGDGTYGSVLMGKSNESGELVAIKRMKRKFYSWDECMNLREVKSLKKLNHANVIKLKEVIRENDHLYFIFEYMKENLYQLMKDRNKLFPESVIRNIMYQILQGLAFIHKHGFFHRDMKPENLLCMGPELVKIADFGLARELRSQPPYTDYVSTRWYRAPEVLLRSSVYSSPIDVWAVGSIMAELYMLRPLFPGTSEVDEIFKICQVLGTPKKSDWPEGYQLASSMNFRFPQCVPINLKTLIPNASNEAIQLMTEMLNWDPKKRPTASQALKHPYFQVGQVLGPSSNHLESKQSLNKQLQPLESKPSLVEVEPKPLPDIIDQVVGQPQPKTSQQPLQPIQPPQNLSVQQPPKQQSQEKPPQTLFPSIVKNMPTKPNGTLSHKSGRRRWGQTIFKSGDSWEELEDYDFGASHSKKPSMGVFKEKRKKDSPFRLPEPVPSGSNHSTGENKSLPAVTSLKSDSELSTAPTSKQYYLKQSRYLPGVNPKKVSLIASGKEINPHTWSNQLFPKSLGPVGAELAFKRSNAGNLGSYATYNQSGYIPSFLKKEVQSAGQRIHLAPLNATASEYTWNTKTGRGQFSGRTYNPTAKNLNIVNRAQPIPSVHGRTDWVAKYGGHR

[24] = read-out: Percent control / Acalabrutinib
[25] = read-out: Percent control / Ibrutinib
[26] = read-out: Percent control / Tirabrutinib
[27] = read-out: Percent control / Zanubrutinib

LCK, sequence (P06239 whole entry): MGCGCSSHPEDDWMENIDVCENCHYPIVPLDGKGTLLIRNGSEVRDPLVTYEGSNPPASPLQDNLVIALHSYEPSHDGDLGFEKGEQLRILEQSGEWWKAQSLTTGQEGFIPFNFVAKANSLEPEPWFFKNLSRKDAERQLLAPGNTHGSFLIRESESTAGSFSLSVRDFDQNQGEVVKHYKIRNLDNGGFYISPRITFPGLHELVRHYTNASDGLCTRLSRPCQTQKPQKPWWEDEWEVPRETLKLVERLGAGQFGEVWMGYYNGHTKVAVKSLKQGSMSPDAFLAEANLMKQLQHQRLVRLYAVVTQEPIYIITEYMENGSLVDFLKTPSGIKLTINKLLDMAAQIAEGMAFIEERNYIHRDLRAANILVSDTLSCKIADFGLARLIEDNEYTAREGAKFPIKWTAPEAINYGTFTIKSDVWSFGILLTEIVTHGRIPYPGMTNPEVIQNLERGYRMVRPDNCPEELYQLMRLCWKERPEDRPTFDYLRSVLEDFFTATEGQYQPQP
T2 sequence (O94804 whole entry): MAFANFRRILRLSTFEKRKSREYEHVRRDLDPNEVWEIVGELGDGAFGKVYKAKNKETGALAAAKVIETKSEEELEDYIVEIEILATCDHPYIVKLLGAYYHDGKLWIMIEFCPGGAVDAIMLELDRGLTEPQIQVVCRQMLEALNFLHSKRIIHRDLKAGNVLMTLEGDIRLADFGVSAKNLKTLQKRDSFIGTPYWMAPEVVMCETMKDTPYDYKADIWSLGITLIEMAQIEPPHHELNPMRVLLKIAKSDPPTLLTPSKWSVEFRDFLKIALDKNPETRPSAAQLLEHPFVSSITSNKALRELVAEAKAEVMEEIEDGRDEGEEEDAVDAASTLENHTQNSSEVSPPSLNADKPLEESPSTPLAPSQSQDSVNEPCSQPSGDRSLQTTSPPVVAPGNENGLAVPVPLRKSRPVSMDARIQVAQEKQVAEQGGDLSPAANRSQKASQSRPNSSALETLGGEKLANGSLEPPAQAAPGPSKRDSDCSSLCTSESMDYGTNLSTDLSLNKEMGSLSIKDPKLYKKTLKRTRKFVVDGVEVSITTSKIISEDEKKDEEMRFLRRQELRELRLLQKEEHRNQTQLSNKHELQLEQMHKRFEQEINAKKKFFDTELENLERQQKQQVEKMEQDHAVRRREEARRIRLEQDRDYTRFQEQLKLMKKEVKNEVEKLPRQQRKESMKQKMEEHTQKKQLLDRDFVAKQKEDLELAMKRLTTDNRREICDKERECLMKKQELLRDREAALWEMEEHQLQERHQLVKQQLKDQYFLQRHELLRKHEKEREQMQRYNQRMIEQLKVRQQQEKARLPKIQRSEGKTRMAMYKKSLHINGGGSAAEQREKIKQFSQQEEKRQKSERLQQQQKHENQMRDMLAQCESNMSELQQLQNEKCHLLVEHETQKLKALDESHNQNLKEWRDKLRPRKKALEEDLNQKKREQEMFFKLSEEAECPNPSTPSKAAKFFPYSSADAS

**Q.** For `CC#CC(=O)N1CCC[C@H]1c1nc(-c2ccc(C(=O)Nc3ccccn3)cc2)c2c(N)nccn12` [Acalabrutinib], which remaining binding at 0.3 µM [1, 24] is on record?
**A.** The remaining binding at 0.3 µM was 95%.

**Q.** What about the remaining binding at 0.3 µM [2, 24] of the same compound?
**A.** Its remaining binding at 0.3 µM is 99%.

**Q.** And the remaining binding at 0.3 µM [3, 24]?
**A.** The remaining binding at 0.3 µM was 83%.

**Q.** And the remaining binding at 0.3 µM [4, 24]?
**A.** Its remaining binding at 0.3 µM is 99%.

**Q.** What about the remaining binding at 0.3 µM [5, 24] of the same compound?
**A.** Its remaining binding at 0.3 µM is 0.3%.

**Q.** What about the remaining binding at 0.3 µM [6, 24] of the same compound?
**A.** Its remaining binding at 0.3 µM is 95%.

**Q.** What about the remaining binding at 0.3 µM [7, 24] of the same compound?
**A.** Its remaining binding at 0.3 µM is 70%.

**Q.** What about the remaining binding at 0.3 µM [8, 24] of the same compound?
**A.** Its remaining binding at 0.3 µM is 69%.

**Q.** What about the remaining binding at 0.3 µM [9, 24] of the same compound?
**A.** Its remaining binding at 0.3 µM is 86%.

**Q.** What about the remaining binding at 0.3 µM [10, 24] of the same compound?
**A.** Its remaining binding at 0.3 µM is 97%.

**Q.** And the remaining binding at 0.3 µM [11, 24]?
**A.** Its remaining binding at 0.3 µM is 92%.

**Q.** What about the remaining binding at 0.3 µM [12, 24] of the same compound?
**A.** The remaining binding at 0.3 µM was 97%.

**Q.** And the remaining binding at 0.3 µM [13, 24]?
**A.** Its remaining binding at 0.3 µM is 85%.

**Q.** What about the remaining binding at 0.3 µM [14, 24] of the same compound?
**A.** The remaining binding at 0.3 µM was 93%.

**Q.** And the remaining binding at 0.3 µM [15, 24]?
**A.** Its remaining binding at 0.3 µM is 96%.

**Q.** And the remaining binding at 0.3 µM [16, 24]?
**A.** Its remaining binding at 0.3 µM is 87%.

**Q.** And the remaining binding at 0.3 µM [17, 24]?
**A.** Its remaining binding at 0.3 µM is 94%.

**Q.** And the remaining binding at 0.3 µM [18, 24]?
**A.** Its remaining binding at 0.3 µM is 77%.

**Q.** What does the source list for `C=CC(=O)N1CCC[C@@H](n2nc(-c3ccc(Oc4ccccc4)cc3)c3c(N)ncnc32)C1` [Ibrutinib]?
**A.** remaining binding at 0.3 µM [1, 25]: 74%; remaining binding at 0.3 µM [19, 25]: 90%; remaining binding at 0.3 µM [20, 25]: 99%

**Q.** Which remaining binding at 0.3 µM [3, 26] does the source give for `CC#CC(=O)N1CC[C@@H](n2c(=O)n(-c3ccc(Oc4ccccc4)cc3)c3c(N)ncnc32)C1` [Tirabrutinib] here?
**A.** Its remaining binding at 0.3 µM is 49%.

**Q.** What about the remaining binding at 0.3 µM [21, 26] of the same compound?
**A.** The remaining binding at 0.3 µM was 94%.

**Q.** And the remaining binding at 0.3 µM [5, 26]?
**A.** Its remaining binding at 0.3 µM is 3%.

**Q.** What about the remaining binding at 0.3 µM [10, 26] of the same compound?
**A.** Its remaining binding at 0.3 µM is 73%.

**Q.** What about the remaining binding at 0.3 µM [22, 26] of the same compound?
**A.** Its remaining binding at 0.3 µM is 93%.

**Q.** And the remaining binding at 0.3 µM [13, 26]?
**A.** The remaining binding at 0.3 µM was 82%.

**Q.** What about the remaining binding at 0.3 µM [23, 26] of the same compound?
**A.** The remaining binding at 0.3 µM was 94%.

**Q.** `C=CC(=O)N1CCC([C@@H]2CCNc3c(C(N)=O)c(-c4ccc(Oc5ccccc5)cc4)nn32)CC1` [Zanubrutinib] was tested. Which remaining binding at 0.3 µM [2, 27] did it give?
**A.** The remaining binding at 0.3 µM was 93%.

**Q.** And the remaining binding at 0.3 µM [21, 27]?
**A.** Its remaining binding at 0.3 µM is 75%.

**Q.** What about the remaining binding at 0.3 µM [4, 27] of the same compound?
**A.** The remaining binding at 0.3 µM was 99%.

**Q.** And the remaining binding at 0.3 µM [6, 27]?
**A.** The remaining binding at 0.3 µM was 82%.

**Q.** What about the remaining binding at 0.3 µM [7, 27] of the same compound?
**A.** Its remaining binding at 0.3 µM is 100%.

**Q.** What about the remaining binding at 0.3 µM [8, 27] of the same compound?
**A.** Its remaining binding at 0.3 µM is 94%.

**Q.** What about the remaining binding at 0.3 µM [9, 27] of the same compound?
**A.** The remaining binding at 0.3 µM was 100%.

**Q.** What about the remaining binding at 0.3 µM [11, 27] of the same compound?
**A.** The remaining binding at 0.3 µM was 100%.

**Q.** And the remaining binding at 0.3 µM [22, 27]?
**A.** Its remaining binding at 0.3 µM is 90%.

**Q.** What about the remaining binding at 0.3 µM [19, 27] of the same compound?
**A.** The remaining binding at 0.3 µM was 68%.

**Q.** And the remaining binding at 0.3 µM [12, 27]?
**A.** The remaining binding at 0.3 µM was 98%.

**Q.** And the remaining binding at 0.3 µM [20, 27]?
**A.** Its remaining binding at 0.3 µM is 90%.

**Q.** And the remaining binding at 0.3 µM [23, 27]?
**A.** The remaining binding at 0.3 µM was 100%.

**Q.** What about the remaining binding at 0.3 µM [14, 27] of the same compound?
**A.** The remaining binding at 0.3 µM was 92%.

**Q.** What about the remaining binding at 0.3 µM [15, 27] of the same compound?
**A.** The remaining binding at 0.3 µM was 100%.

**Q.** And the remaining binding at 0.3 µM [16, 27]?
**A.** Its remaining binding at 0.3 µM is 98%.

**Q.** And the remaining binding at 0.3 µM [17, 27]?
**A.** The remaining binding at 0.3 µM was 74%.

**Q.** And the remaining binding at 0.3 µM [18, 27]?
**A.** Its remaining binding at 0.3 µM is 83%.
